Data reported in patent US20230227815A1, “Systems, Methods, And Compositions For A Facile Accelerated Specific Therapeutic (Fast) Pipeline” (priority 2019, published 2023).
In brackets after ≈: the same amount, converted by molar mass.

System: E. Coli CUS2B
Assay: Minimum inhibitory concentration assay
Format: cell-based
Settings: for resistance phenotype (CLSI breakpoints): E. Coli CUS2B clinical isolate; for MIC: Escherichia coli, E. Coli CUS2B
Excerpt: To validate the E. Coli CUS2B resistance phenotype observed in the clinic, we measured the isolate's minimum inhibitory concentrations (MIC) for a variety of antibiotics from different classes (FIG. 17A). […] Two potent carbapenem antibiotics, meropenem and doripenem, were the only drugs to which the clinical isolate was susceptible. To investigate this partial carbapenem resistance, we focused on the E. Coli CUS2B response to ertapenem and meropenem. The structures of meropenem and ertapenem differ in the pyrrolidinyl ring's position 2 side chain (FIG. 17B). Meropenem's substituent amide group is thought to be responsible for increased potency against gram-negative organisms in comparison to imipenem. At this position ertapenem has a benzoate substituent group, which imbues the molecule with a net negative charge and increases its lipophilicity, resulting in increased plasma half-life but decreased affinity for membrane porins.
E. Coli CUS2B was provided the Dr. Nancy Madinger, at the University of Colorado Hospital Clinical Microbiology Laboratory's organism bank. The isolate was obtained via rectal swab from a pregnant patient. Unless otherwise mentioned, CUS2B was propagated in aerobic conditions at 37° C. in liquid cultures of cation-adjusted Mueller Hinton broth (CAMHB) with shaking at 225 rpm or on solid CAMHB with 15 g/L of agar. Minimum inhibitory concentration assays Three colonies were picked from a plate and used to inoculate three separate overnight cultures in 1 mL CAMHB each. After 16 hours, the cultures were diluted 1:10,000 and treated with a range of antibiotic concentrations, decreasing in 2-fold increments, in a 384 or 96-well microplate using three biological replicates per condition. Growth in the plate was monitored with a Tecan GENios (Tecan Group Ltd.) running Magellan™ software (v 7.2) at an absorbance of 461 590 nm every 20 minutes for 16 hours, with shaking between measurements. The minimum inhibitory concentration was identified as the lowest antibiotic concentration preventing growth.

| SMILES | resistance phenotype (CLSI breakpoints) | MIC |
| --- | --- | --- |
| C[C@@H](O)[C@H]1C(=O)N2C(C(=O)O)=C(S[C@@H]3CN[C@H](C(=O)N(C)C)C3)[C@H](C)[C@H]12 [meropenem] | susceptible | 0.25 µg/mL (≈ 0.652 µM) |
| C[C@@H](O)[C@H]1C(=O)N2C(C(=O)O)=C(S[C@@H]3CN[C@H](CNS(N)(=O)=O)C3)[C@H](C)[C@H]12 [doripenem] | susceptible |  |
| C[C@@H](O)[C@H]1C(=O)N2C(C(=O)O)=C(S[C@@H]3CN[C@H](C(=O)Nc4cccc(C(=O)O)c4)C3)[C@H](C)[C@H]12 [ertapenem] | resistant | 2 µg/mL (≈ 4.21 µM) |
